These results are taken from patent publication US9434743B2, “Indazole derivatives” (TAKEDA PHARMACEUTICAL COMPANY LIMITED, priority 2012, dated 2016).

For experiment [1], the target named is T1, human MetAP2 enzyme (Homo sapiens, UniProt P50579). Kind of experiment: MetAP2 enzyme assay, enzyme complexed with manganese ions. The settings on record: MetAP2 Mn pIC50, MetAP2 enzyme complexed with manganese ions; Met-AMC substrate at Km.
Procedure: DNA encoding the full-length sequence of human MetAP2 enzyme is amplified by PCR and cloned into a pFastBac expression vector (Invitrogen). Recombinant baculovirus incorporating the MetAP2 construct is generated by transposition using the Bac-to-Bac system (Invitrogen). The expression of recombinant protein is carried out by infection of Spodoptera frugiperda Sf9 cells (Invitrogen) in 5 L Wave Bioreactors (Wave Biotech). Recombinant protein is isolated from cellular extracts by binding to an SP Hitrap Fast Flow or SP Sepharose (Sigma) column, and the protein is eluted using a NaCl gradient. Partially purified extracts of MetAP2 are further purified by an AKTA FPLC over a Superdex-200 column (GE). The purity of MetAP2 protein is determined on denaturing SDS-PAGE gel.
The results for each well are expressed as percent inhibition and calculated using the equation:
For experiment [2], the target named is T1, human MetAP2 enzyme. Kind of experiment: MetAP2 enzyme assay, enzyme complexed with cobalt ions. The note with it: MetAP2 Co pIC50, MetAP2 enzyme complexed with cobalt ions; Met-AMC substrate at Km.

T1 sequence (P50579 whole entry): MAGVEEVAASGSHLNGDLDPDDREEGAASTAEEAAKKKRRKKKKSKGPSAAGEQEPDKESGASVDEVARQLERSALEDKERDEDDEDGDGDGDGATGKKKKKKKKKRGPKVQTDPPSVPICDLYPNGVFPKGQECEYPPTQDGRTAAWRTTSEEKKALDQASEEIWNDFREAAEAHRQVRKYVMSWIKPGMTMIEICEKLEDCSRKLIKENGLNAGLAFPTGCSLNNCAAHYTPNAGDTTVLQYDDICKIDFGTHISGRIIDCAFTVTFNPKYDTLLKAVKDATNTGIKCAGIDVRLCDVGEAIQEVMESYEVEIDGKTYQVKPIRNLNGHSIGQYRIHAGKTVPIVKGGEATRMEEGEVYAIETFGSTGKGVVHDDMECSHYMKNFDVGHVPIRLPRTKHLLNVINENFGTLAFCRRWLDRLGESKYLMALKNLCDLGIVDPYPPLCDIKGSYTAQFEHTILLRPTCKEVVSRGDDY

One may read the IC50 as the concentration at which inhibition is half-maximal. Read a high IC50 as a need for much substance. `Cn1cc(-c2cc(C(F)(F)F)cc3[nH]ncc23)c(N)n1` [Example 144, 1-methyl-4-(6-(trifluoromethyl)-1H-indazol-4-yl)-1H-pyrazol-3-amine]: the IC50 was 0.02 µM in experiment [1] and 0.2 µM in experiment [2].
As for `CCOCn1ccnc1-c1cc(C(F)(F)F)cc2[nH]ncc12` [Example 145, 4-(1-(ethoxymethyl)-1H-imidazol-2-yl)-6-(trifluoromethyl)-1H-indazole], the IC50 in experiment [1] is 0.631 µM; in experiment [2] it was 3.98 µM.
As to `Cc1ncc(-c2cc(C(F)(F)F)cc3[nH]ncc23)n1C` [Example 146, 4-(1,2-dimethyl-1H-imidazol-5-yl)-6-(trifluoromethyl)-1H-indazole], the values for the 50% inhibitory concentration (IC50) in experiment [1] and in experiment [2] were 0.1 µM and 0.794 µM, respectively.
As for `Cn1ccnc1-c1cc(C(F)(F)F)cc2[nH]ncc12` [Example 147, 4-(1-methyl-1H-imidazol-2-yl)-6-(trifluoromethyl)-1H-indazole], the IC50 in experiment [1] is 0.126 µM; in experiment [2], 5.01 µM.
For `FC(F)(F)c1cc(-c2cnc3ccccn23)c2cn[nH]c2c1` [Example 149, 4-(imidazo[1,2-a]pyridin-3-yl)-6-(trifluoromethyl)-1H-indazole], in that order: 0.0631 µM and 0.501 µM.
Take `Cc1nc2ccccn2c1-c1cc(C(F)(F)F)cc2[nH]ncc12` [Example 150, 4-(2-methylimidazo[1,2-a]pyridin-3-yl)-6-(trifluoromethyl)-1H-indazole]: the IC50 is 0.251 µM in experiment [1] and 0.794 µM in experiment [2].
`FC(F)(F)c1cc(-c2cnc3ncccn23)c2cn[nH]c2c1` [Example 151, 3-(6-(trifluoromethyl)-1H-indazol-4-yl)imidazo[1,2-a]pyrimidine]: the results for the 50% inhibitory concentration (IC50) in experiment [1] and in experiment [2] were 0.00631 µM and 0.2 µM, respectively.
In the case of `FC(F)(F)c1cc(-c2cnc3cnccn23)c2cn[nH]c2c1` [Example 152, 3-(6-(trifluoromethyl)-1H-indazol-4-yl)imidazo[1,2-a]pyrazine], the IC50 in experiment [1] is 0.126 µM; in experiment [2] it was 2 µM.
For `N#Cc1ccc2ncc(-c3cc(C(F)(F)F)cc4[nH]ncc34)n2c1` [Example 153, 3-(6-(trifluoromethyl)-1H-indazol-4-yl)imidazo[1,2-a]pyridine-6-carbonitrile], in that order: 0.0251 µM and 0.2 µM.
On to `FC(F)(F)c1cc(-c2ncn3ccccc23)c2cn[nH]c2c1` [Example 154, 4-(imidazo[1,5-a]pyridin-1-yl)-6-(trifluoromethyl)-1H-indazole], for which the IC50 was 0.0158 µM in experiment [1] and 0.1 µM in experiment [2].
For `FC(F)(F)c1cc(-c2c[nH]c3ncncc23)c2cn[nH]c2c1` [Example 155, 5-(6-(trifluoromethyl)-1H-indazol-4-yl)-7H-pyrrolo[2,3-d]pyrimidine], in that order: 0.0158 µM and 0.0631 µM.
Take `O=c1[nH]cnc2[nH]nc(-c3cc(C(F)(F)F)cc4[nH]ncc34)c12` [Example 156, 3-(6-(trifluoromethyl)-1H-indazol-4-yl)-1H-pyrazolo[3,4-d]pyrimidin-4(5H)-one]: the IC50 was 0.0316 µM in experiment [1] and 0.501 µM in experiment [2].
As for `FC(F)(F)c1cc(-c2c[nH]c3nccnc23)c2cn[nH]c2c1` [Example 157, 7-(6-(trifluoromethyl)-1H-indazol-4-yl)-5H-pyrrolo[2,3-b]pyrazine], the IC50 in experiment [1] is 0.0126 µM; in experiment [2] it was 0.251 µM.
Consider `N#Cc1cnc2c(-c3cc(C(F)(F)F)cc4[nH]ncc34)cnn2c1N` [Example 159, 7-amino-3-(6-(trifluoromethyl)-1H-indazol-4-yl)pyrazolo[1,5-a]pyrimidine-6-carbonitrile], for which the figures for the IC50 in experiment [1] and in experiment [2] were 0.158 µM and 1.58 µM, respectively.
For `COc1ccn2c(-c3cc(C(F)(F)F)cc4[nH]ncc34)cnc2c1C#N` [Example 160, 7-methoxy-3-(6-(trifluoromethyl)-1H-indazol-4-yl)imidazo[1,2-a]pyridine-8-carbonitrile], in that order: 0.0398 µM and 0.0794 µM.
Consider `Cc1[nH]cnc1-c1cc(C(F)(F)F)cc2[nH]ncc12` [Example 161, 4-(5-methyl-1H-imidazol-4-yl)-6-(trifluoromethyl)-1H-indazole], for which the IC50 in experiment [1] is 0.0126 µM; in experiment [2], 0.251 µM.
Regarding `Cc1cnc(-c2cc(C(F)(F)F)cc3[nH]ncc23)n1C` [Example 162, 4-(1,5-dimethyl-1H-imidazol-2-yl)-6-(trifluoromethyl)-1H-indazole], the values for the half-maximal inhibitory concentration (IC50) in experiment [1] and in experiment [2] were 0.00631 µM and 0.316 µM, respectively.
With `Cc1cn(C)c(-c2cc(C(F)(F)F)cc3[nH]ncc23)n1` [Example 163, 4-(1,4-dimethyl-1H-imidazol-2-yl)-6-(trifluoromethyl)-1H-indazole], the IC50 was 0.0126 µM in experiment [1] and 0.794 µM in experiment [2].
With `Cc1nn(C)c(C)c1-c1cc(C(F)(F)F)cc2[nH]ncc12` [Example 164, 6-(trifluoromethyl)-4-(1,3,5-trimethyl-1H-pyrazol-4-yl)-1H-indazole], the IC50 was 0.00398 µM in experiment [1] and 0.0158 µM in experiment [2].
Regarding `Cn1ncc(-c2cc(C(F)(F)F)cc3[nH]ncc23)c1N` [Example 165, 1-methyl-4-(6-(trifluoromethyl)-1H-indazol-4-yl)-1H-pyrazol-5-amine], the IC50 was 0.0631 µM in experiment [1] and 1 µM in experiment [2].
In the case of `Cc1onc(N)c1-c1cc(C(F)(F)F)cc2[nH]ncc12` [Example 166, 5-methyl-4-(6-(trifluoromethyl)-1H-indazol-4-yl)isoxazol-3-amine], the results for the IC50 in experiment [1] and in experiment [2] were 0.0398 µM and 0.794 µM, respectively.
Turning to `Cn1c(-c2cc(C(F)(F)F)cc3[nH]ncc23)nc2c1c(=O)[nH]c(=O)n2C` [Example 167, 3,7-dimethyl-8-(6-(trifluoromethyl)-1H-indazol-4-yl)-1H-purine-2,6(3H,7H)-dione], the IC50 in experiment [1] was 0.00398 µM; in experiment [2] it was 0.158 µM.
Consider `CCn1nc(C)c(-c2cc(C(F)(F)F)cc3[nH]ncc23)c1C` [Example 168, 4-(1-ethyl-3,5-dimethyl-1H-pyrazol-4-yl)-6-(trifluoromethyl)-1H-indazole], for which the figures for the 50% inhibitory concentration (IC50) in experiment [1] and in experiment [2] were 0.00631 µM and 0.0251 µM, respectively.
For `Cc1nn(-c2nnn[nH]2)c(C)c1-c1cc(C(F)(F)F)cc2[nH]ncc12` [Example 169, 4-(3,5-dimethyl-1-(1H-tetrazol-5-yl)-1H-pyrazol-4-yl)-6-(trifluoromethyl)-1H-indazole], in that order: 0.02 µM and 0.251 µM.
Consider `Cc1nn(CC#N)c(C)c1-c1cc(C(F)(F)F)cc2[nH]ncc12` [Example 170, 2-(3,5-dimethyl-4-(6-(trifluoromethyl)-1H-indazol-4-yl)-1H-pyrazol-1-yl)acetonitrile], for which the results for the half-maximal inhibitory concentration (IC50) in experiment [1] and in experiment [2] were 0.02 µM and 0.1 µM, respectively.
For `CCn1cc(-c2cc(C(F)(F)F)cc3[nH]ncc23)c(C)n1` [Example 171, 4-(1-ethyl-3-methyl-1H-pyrazol-4-yl)-6-(trifluoromethyl)-1H-indazole], in that order: 0.00501 µM and 0.0631 µM.
For `Cc1nn(CCC(N)=O)c(C)c1-c1cc(C(F)(F)F)cc2[nH]ncc12` [Example 172, 3-(3,5-dimethyl-4-(6-(trifluoromethyl)-1H-indazol-4-yl)-1H-pyrazol-1-yl)propanamide], in that order: 0.00794 µM and 0.0501 µM.
For `Cc1nn(CC(N)=O)c(C)c1-c1cc(C(F)(F)F)cc2[nH]ncc12` [Example 173, 2-(3,5-dimethyl-4-(6-(trifluoromethyl)-1H-indazol-4-yl)-1H-pyrazol-1-yl)acetamide], in that order: 0.0158 µM and 0.0316 µM.
With `Cc1nn(CCC#N)c(C)c1-c1cc(C(F)(F)F)cc2[nH]ncc12` [Example 174, 3-(3,5-dimethyl-4-(6-(trifluoromethyl)-1H-indazol-4-yl)-1H-pyrazol-1-yl)propanenitrile], the half-inhibitory concentration (IC50) was 0.0126 µM in experiment [1] and 0.0631 µM in experiment [2].
With `CCn1ncc(-c2cc(C(F)(F)F)cc3[nH]ncc23)c1C` [Example 175, 4-(1-ethyl-5-methyl-1H-pyrazol-4-yl)-6-(trifluoromethyl)-1H-indazole], the IC50 in experiment [1] is 0.01 µM; in experiment [2] it was 0.0398 µM.
Turning to `Cc1nn(CCN)c(C)c1-c1cc(C(F)(F)F)cc2[nH]ncc12` [Example 176, 2-(3,5-dimethyl-4-(6-(trifluoromethyl)-1H-indazol-4-yl)-1H-pyrazol-1-yl)ethanamine], the figures for the IC50 in experiment [1] and in experiment [2] were 0.0126 µM and 0.0398 µM, respectively.
Turning to `Cc1ncsc1-c1cc(C(F)(F)F)cc2[nH]ncc12` [Example 177, 4-methyl-5-(6-(trifluoromethyl)-1H-indazol-4-yl)thiazole], the values for the IC50 in experiment [1] and in experiment [2] were 0.00398 µM and 0.0501 µM, respectively.
For `CC(=O)Nc1ccc(-c2cc(C(F)(F)F)cc3[nH]ncc23)c(C)n1` [Example 178, N-(6-methyl-5-(6-(trifluoromethyl)-1H-indazol-4-yl)pyridin-2-yl)acetamide], the concentration for half-maximal inhibition (IC50) was 0.00794 µM in experiment [1] and 0.0316 µM in experiment [2].
For `CC(=O)Nc1cc(C)c(-c2cc(C(F)(F)F)cc3[nH]ncc23)cn1` [Example 179, N-(4-methyl-5-(6-(trifluoromethyl)-1H-indazol-4-yl)pyridin-2-yl)acetamide], in that order: 0.01 µM and 0.0251 µM.
`OC(COc1ccccc1-c1cc(C(F)(F)F)cc2[nH]ncc12)CN1CCOCC1` (stereo not drawn) [Example 180, 1-morpholino-3-(2-(6-(trifluoromethyl)-1H-indazol-4-yl)phenoxy)propan-2-ol]: the IC50 in experiment [1] was 0.0398 µM; in experiment [2], 1 µM.
On to `CNC(=O)c1ccc(OC)c(-c2cc(C(F)(F)F)cc3[nH]ncc23)c1` [Example 181, 4-methoxy-N-methyl-3-(6-(trifluoromethyl)-1H-indazol-4-yl)benzamide], for which the IC50 in experiment [1] is 0.00501 µM; in experiment [2] it was 0.0158 µM.
